Data on one compound can be found in publication PMC11530130, “Peripherally restricted PICK1 inhibitor mPD5 ameliorates pain behaviors in murine inflammatory and neuropathic pain models” (JCI Insight, 2024).

The structures appear in SMILES notation. Several values for one entry are separate records, joined by “and”; a condition that tells them apart may be missing. Equal values may be shown once.

The test system of this assay is mice, CFA model of inflammatory pain. Briefly: CFA model, Hargreaves test (thermally evoked pain). As to conditions: s.c. 10 μmol/kg. In kind it is in vivo, mouse. As to the method:
Induction of inflammatory pain (CFA model).
Injury was induced on the right hind paw, whereas the contralateral left hind paw was used as internal control of the C57BL/6J male and female mice (Janvier, France). The inflammatory pain was induced by injection of 50 μL undiluted Complete Freund’s Adjuvant (CFA) (F5881, Sigma) unilaterally into the intraplantar surface of the right hind paw, whereas control mice were injected with the same amount of 0.9 % saline (B. Braun, Germany). All intraplantar injections were performed with an insulin needle (0.3 mL BD Micro-Fine) while the animal was under isoflurane anaesthesia (2%) for maximum 60 seconds. Von Frey was applied up to 11 days after unilateral CFA injection depending on the experiment. (For Figure 3A, the experiment was run in cohort with Figure 1A of (9)).
Induction of neuropathic pain (SNI model). […]
Post-surgical analgesia included s.c. injection of 5 mg/kg carprofen (Carprosan vet, 50 mg/mL mixed 1:25 in sterile ddH2O, Dechra, Le Vet Beheer B.V., Netherlands, Batch: 050520) right after surgery and the following day. Post-surgical care included daily severity scoring for four days, and medical clips removed. X-ray imaging (IVIS Lumina XR Apparatus, Caliper Life Sciences, Belgium) was conducted to estimate the relative femoral bone density of the ipsilateral femur at baseline and at the experimental endpoint. The test battery of the CIBP model was carried out 45 or 90 min after morphine and mPD5 administration respectively to accommodate the peak efficacy […]
Mechanically evoked pain (von Frey test).
Unless otherwise specified, von Frey occurred as described in the following. Animals were habituated to the experimental room for a minimum of 60 min before initiation of the experiment. Mechanical paw withdrawal threshold (PWT) was determined by von Frey measurements of both hind paws. Von Frey filaments ranging from 0.04 to 2 g (g = gram- […]
Filaments in ascending order were applied to the frontocentral plantar surface of the hind paws.
Mice were placed in PVC plastic boxes (11.5 cm x 14 cm) on a wire mesh and allowed minimum 20 min habituation prior of experiment initiation. Each von Frey hair was applied five times with adequate resting periods between each application and number of withdrawals recorded. The withdrawal threshold was determined as the von Frey filament eliciting at least three positive trials out of the five applications in two consecutive filaments. A positive trial was defined as sudden paw withdrawal, flinching and/or paw licking induced by the filament.
For the CIBP model, two habituation sessions were performed on separated days with mice placed in the von Frey equipment for 1-1.5 hours in the presence of the experimenter on day one and random von Frey pocking with the 0.6 g filament on day two. Von Frey monofilaments (North Coast Touch Test, North Coast Medical, Inc.) with target forces of 0.04g, 0.07g, 0.16g, […]
down method” (PWT=10Xf+kδ) starting with the 0.6 g filament. Positive response was defined as; withdrawal, shaking or grooming of paw following a 2-3 second stimulation. In case, of unclear response, stimulus was repeated after 10-15 seconds.
For the STZ model, the mechanical threshold response of the injected mice was measured with […]
injection of test compounds on day 14, mechanical threshold was measured at 1 hour, 2 hours, 4 hours and 6 hours and again on day 15. […]
Thermally evoked pain (Hargreaves test).
A baseline Hargreaves test was performed on day 0 before inflammatory pain was induced as described in section 2.13. In the Hargreaves test, the mouse was placed in a container on a glass table and left to habituate for at least 15 min. Using the Hargreaves apparatus, a heat beam from beneath was directed towards the hind paws of the mouse, and the paw withdrawal time […]
was registered automatically. The cut off was set to maximum 30 seconds to avoid skin injury and the experiment was repeated 5 times for each paw with at least five min in between […]
measurements. […]

As to `CCCCCCCCCCCCCC(=O)N(CCOCCOCCC(=O)N[C@@H](Cc1c[nH]cn1)C(=O)N[C@@H](Cc1c[nH]c2ccccc12)C(=O)N[C@@H](CC(C)C)C(=O)N[C@@H](CCCCN)C(=O)N[C@H](C(=O)O)C(C)C)CCOCCOCCC(=O)N[C@@H](Cc1c[nH]cn1)C(=O)N[C@@H](Cc1c[nH]c2ccccc12)C(=O)N[C@@H](CC(C)C)C(=O)N[C@@H](CCCCN)C(=O)N[C@H](C(=O)O)C(C)C` [mPD5, myristoyl-NPEG4-(HWLKV)2], the “effect on the contralateral paw (Hargreaves)” value is recorded as “No effect”. For the same compound, the “effect on thermal hypersensitivity of the ipsilateral paw” value (1 hour after administration) was “reverted”. Also, the “paw withdrawal latency (Hargreaves), individual mice” value (shortened to “paw withdrawal latency (Hargreaves)”) (contralateral paw, 1 h) was 10.93 and 8.17 and 12.67 and 7.53 and 10.3 and 14.03. The “paw withdrawal latency (Hargreaves)” value (contralateral paw, 5 h) is 15.97 and 9.47 and 12.27 and 10.97 and 14.37 and 8.3. Moreover, the “paw withdrawal latency (Hargreaves)” value (contralateral paw, 21 h) is 15.23 and 12.33 and 19.73 and 9.13 and 7.03 and 15.57. The “paw withdrawal latency (Hargreaves)” value (ipsilateral paw, 1 h) was 8.4 and 16.3 and 10.87 and 15.83 and 12.17 and 11.77. For the same compound, the “paw withdrawal latency (Hargreaves)” value (ipsilateral paw, 5 h) was 10.8 and 9.77 (2×) and 5.13 and 6.33 and 4.77. In addition, where the note is “ipsilateral paw, 21 h”, the “paw withdrawal latency (Hargreaves)” value is 6.3 and 9.13 and 2.77 and 3.3 and 2.37 and 11.83.
